Results on five molecules are retold here after patent publication US5206135A, “Use of the oxygenase activity of acetolactate synthase for herbicide detection” (E. I. Du Pont de Nemours and Company, priority 1990, dated 1993).

Format in all cases: biochemical
The target of data set [1] is T1, acetolactate synthase (Escherichia coli, UniProt P0DP90).
T1 sequence (P0DP90 1-548): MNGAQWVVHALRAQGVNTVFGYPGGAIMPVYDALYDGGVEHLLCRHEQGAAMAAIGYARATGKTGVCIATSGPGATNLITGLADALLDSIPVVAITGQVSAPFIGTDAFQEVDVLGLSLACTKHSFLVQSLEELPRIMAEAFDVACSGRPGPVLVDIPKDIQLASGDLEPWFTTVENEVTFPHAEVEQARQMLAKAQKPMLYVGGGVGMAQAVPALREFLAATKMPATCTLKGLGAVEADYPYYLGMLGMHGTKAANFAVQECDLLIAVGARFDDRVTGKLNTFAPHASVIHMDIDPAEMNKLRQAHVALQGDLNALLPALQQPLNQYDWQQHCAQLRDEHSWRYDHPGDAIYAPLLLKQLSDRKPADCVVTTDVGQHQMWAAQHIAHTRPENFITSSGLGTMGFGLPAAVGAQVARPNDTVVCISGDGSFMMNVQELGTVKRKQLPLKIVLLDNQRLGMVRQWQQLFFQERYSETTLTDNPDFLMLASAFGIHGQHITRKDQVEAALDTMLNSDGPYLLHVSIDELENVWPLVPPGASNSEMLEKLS
T1 sequence (P0ADG1 1-87 partner): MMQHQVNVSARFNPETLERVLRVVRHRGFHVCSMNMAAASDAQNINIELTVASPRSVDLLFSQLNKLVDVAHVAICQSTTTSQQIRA
Briefly: Oxygenase activity of acetolactate synthase with different substrates (oxygen-sensitive electrode). On the procedure:
(§1) To a 1 ml solution containing 0.1 M tricine-NaOH, pH 8, 10 mM MgCl2, 0.1 mM thiamine pyrophosphate, and 0.1 mM flavin adenine dinucleotide were added various concentrations of pyruvate (10 μM to 10 mM), α-keto-butyrate (10 μM to 80 mM), or acetolactate (0.15 to 5.5 mM). After allowing the solution to equilibrate with air (21 % O2), the level of dissolved oxygen was monitored by use of a commercially available oxygen-sensitive electrode (Hansatech) and polarographic electronics as described by Sweet et al. (Analytical Biochemistry 107:337 (1980)). In the absence of further additions, negligible oxygen was consumed over a 30 minute period. To initiate the consumption of oxygen, 20 μl of a 2 mg/ml stock solution of acetolactate synthase was added if pyruvate or α-acetolactate were used as substrate, or 5 μl of a 49 mg/ml stock solution of acetolactate synthase was added if α-ketobutyrate was used as substrate. The limiting rate of oxygen consumption at saturating concentrations of pyruvate, α-ketobutyrate, or α-acetolactate are illustrated in Table 1. The concentrations of α-acetolactate or α-ketobutyrate that gave half of the maximum rate (the Michaelis constant) were 1.4 mM and 32 μM, respectively.

In data set [2] the target is T1, acetolactate synthase. Briefly: Sensitivity of the oxygenase activity of acetolactate synthase to herbicides (oxygen-sensitive electrode). Particulars: 100 μM pyruvate as substrate; rate of oxygen consumption; pH 8; read-out: Concentration that Gives 50% Inhibition. The protocol:
as §1, with “The concentrations of α-acetolactate or α-ketobutyrate that gave half of the maximum rate (the Michaelis constant) were 1.4 mM and 32 μM, respectively.” left out
Assays were conducted as described under Examples 1-3, except that 100 μM pyruvate was used as substrate. […] These values are similar to previously reported values (Schloss et al. Nature 331:360 (1988)) for inhibition of the enzyme monitored by use of the known acetolactate-forming reaction.

Substrate in data set [3]: CCC(=O)C(=O)O
Briefly: Oxygenase activity of acetolactate synthase with different substrates (oxygen-sensitive electrode). Particulars: other: oxygen consumption, pH 8, air-equilibrated. On the procedure: as §1

Substrate in data set [4]: CC(=O)C(C)(O)C(=O)O
The description is as above. Particulars: other: oxygen consumption, pH 8, air-equilibrated. The protocol: as §1

For `CC(=O)C(C)(O)C(=O)O` (stereo not drawn) [α-Acetolactate], the “Maximum rate (μmoles of oxygen consumed/mg enzyme/min)” value at acetolactate synthase [1] (limiting rate of oxygen consumption at saturating substrate, 0.1 M tricine-NaOH pH 8, air-equilibrated (21 % O2)) is 0.20 μmoles of oxygen consumed/mg e.
For the molecule `CC(=O)C(=O)O` [Pyruvate], on acetolactate synthase [1] (oxygen consumption, pH 8, air-equilibrated, read-out: Concentration that gave half of the maximum rate (the Michaelis constant)), the Km is less than 10 µM.
On to `COc1nc(C)nc(NC(=O)NS(=O)(=O)c2ccccc2Cl)n1` [chlorsulfuron], for which, on acetolactate synthase [2], the IC50 turned out to be 500 nM.
Still for that read-out and setting: as for `COC(=O)c1ccccc1S(=O)(=O)NC(=O)Nc1nc(C)cc(C)n1` [sulfometuron methyl], the figure is 1000 nM.

B1: acetolactate synthase (Escherichia coli K-12) (protein)
chain: T1 sequence (P0DP90 1-548)
On to B1, for which the Km came to 32 µM in data set [3] and 1400 µM in data set [4].
